“And” between values parts separate entries of the source, which are not always exact repeats. Identical values can stand only once.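 The compound was tested at five concentrations on cells cultured in 96-well plates, with a 48-hour exposure period. GI50: concentration for 50% inhibition of growth. The concentration for full growth arrest is given as TGI.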
What was measured:
Assay in all cases: inhibition of tumour cell growth, NCI panel, 48 h
HCT-15 colon = system: HCT-15 colon
OVCAR-8 ovarian = system: OVCAR-8 ovarian
MALME-3M melanoma = system: MALME-3M melanoma
A549 NSCLC = system: A549 NSCLC
CAKI-1 renal = system: CAKI-1 renal
SK-MEL-5 melanoma = system: SK-MEL-5 melanoma
OVCAR-5 ovarian = system: OVCAR-5 ovarian
SR leukemia = system: SR leukemia
EKVX NSCLC = system: EKVX NSCLC
786-0 renal = system: 786-0 renal

Row | Compound | TGI (HCT-15 colon) [µM] | TGI (OVCAR-8 ovarian) | TGI (MALME-3M melanoma) [µM] | TGI (A549 NSCLC) [µM] | TGI (CAKI-1 renal) [µM] | TGI (SK-MEL-5 melanoma) | TGI (OVCAR-5 ovarian) [µM] | TGI (SR leukemia) | TGI (EKVX NSCLC) [µM] | TGI (786-0 renal) [µM] | GI50 (HCT-15 colon) | GI50 (OVCAR-8 ovarian) | GI50 (MALME-3M melanoma) [nM] | GI50 (A549 NSCLC) [nM] | GI50 (CAKI-1 renal) [µM] | GI50 (SK-MEL-5 melanoma) | GI50 (OVCAR-5 ovarian) [nM] | GI50 (SR leukemia) [nM] | GI50 (EKVX NSCLC) [nM] | GI50 (786-0 renal)
1 | O=C1C(Cl)C(c2ccccc2O)N1n1cnc2ccccc2c1=O (stereo unspecified) | 15.1 | > 100 µM | > 100 | > 100 | > 100 | > 100 µM | > 100 | > 100 µM | 88.5 | > 100 | – | – | – | – | – | – | – | – | – | –
2 | COc1ccccc1CNCCCN1C(=O)c2ccc3c4c(ccc(c24)C1=O)C(=O)N(CCCCNCCCN)C3=O | 18.6 | 3.67 µM | 2.18 | 3.5 | 34.8 | 0.95 µM | 9.02 | > 23.6 µM | 5.75 | 9.35 | 4.43 µM | 710 nM | 871 | 1580 | 13.1 | 467 nM | 2950 | 362 | 2000 | 2.25 µM
3 | NC(=O)c1cccc(Nc2nccc(Nc3cccc4[nH]ncc34)n2)c1 | > 25 | > 25 µM | > 25 | > 25 | > 25 | > 25 µM | > 25 | > 25 µM | > 25 | > 25 | > 25 µM | 8110 nM | 24400 | > 24000 | 14.6 | 6960 nM | 7500 | 8720 | > 25000 | 10.8 µM
4 | Cc1cccc(C)c1NC(=O)Nc1ccc(S(N)(=O)=O)cc1 | > 100 | > 100 µM | > 100 | > 100 | > 100 | > 100 µM | > 100 | > 100 µM | > 100 | > 100 | – | – | – | – | – | – | – | – | – | –
5 | COc1ccc(-c2c3c(n(C4OC(COC(C)=O)C(OC(C)=O)C(OC(C)=O)C4OC(C)=O)c(=S)c2C#N)CC(C)(C)CC3=O)cc1 (stereo unspecified) | > 100 | 75.4 µM and > 100 µM | > 100 | > 100 | > 100 | 75.7 µM and > 100 µM | > 100 | 74.7 µM and > 100 µM | 97.5 | > 100 | 40.7 µM and > 100 µM | 22100 nM and > 100000 nM | – | – | – | 23100 nM and 61100 nM | – | – | – | 36.3 µM and > 100 µM
6 | COC(C(=O)NCCCCNC(=O)C(OC)c1ccccc1)c1ccccc1 (stereo unspecified) | > 100 | > 100 µM | > 100 | > 100 | > 100 | > 100 µM | > 100 | > 100 µM | > 100 | > 100 | – | – | – | – | – | – | – | – | – | –
7 | CCCN(CCCC(NC(C)=O)C(=O)NCc1ccccc1)C(=O)NCCCl (stereo unspecified) | > 100 | > 100 µM | > 100 | > 100 | > 100 | – | – | > 100 µM | > 100 | > 100 | – | – | – | – | – | – | – | – | – | –
8 | CC(C)(C)CC(C)(C)NCc1cc(C(C)(C)C)cc(CNC(C)(C)CC(C)(C)C)c1O | 12.5 | 12.4 µM | 4 | 14.7 | 17.2 | 2.96 µM | 10 | 5.44 µM | 14.1 | 14.4 | 3.22 µM | 3250 nM | 1850 | 3970 | 3.69 | 1610 nM | 3020 | 2140 | 2780 | 3.85 µM
9 | O=c1[nH]c2cc(Cl)ccc2nc1/C(=N\O)C(O)c1ccc([N+](=O)[O-])cc1 (stereo unspecified) | > 100 | > 100 µM | > 100 | > 100 | > 100 | > 100 µM | – | > 100 µM | > 100 | > 100 | – | – | – | – | – | – | – | – | – | –
10 | CN1C(=O)N[C@H]2[C@@H]3NC(=O)c4ccc(Br)n4[C@@H]3C[C@]21O | 8.49 | 1.93 µM | 0.731 | 4.47 | 13.1 | 0.0653 µM | 6.3 | 0.639 µM | 4.98 | 1.82 | 0.979 µM | 259 nM | 103 | 270 | 2.4 | < 14.8 nM | 1030 | 33.5 | 868 | 0.223 µM
11 | OCC(O)c1nc2ccc3[nH]ncc3c2c2c1CCCC2 (stereo unspecified) | > 50 | > 50 µM | 4.82 | > 50 | > 50 | 2.99 µM | > 50 | 4.52 µM | 4.67 | > 50 | 1.5 µM | 1450 nM | 1670 | 1670 | 0.971 | 1020 nM | 1530 | 658 | 1300 | 1.77 µM
12 | O=[N+]([O-])C1Cc2ccccc2OC1c1ccccc1 (stereo unspecified) | – | > 100 µM | > 100 | > 100 | 99 | > 100 µM | > 100 | 66.6 µM | > 100 | > 100 | – | – | – | – | – | – | – | – | – | –
13 | Cc1cc(C)c(NC(=S)NC(=O)c2ccccc2)cc1C | > 100 | > 100 µM | > 100 | > 100 | > 100 | > 100 µM | > 100 | > 100 µM | > 100 | > 100 | – | – | – | – | – | – | – | – | – | –
14 | CN(Cc1cc(Cl)cc(Cl)c1)CC(C(=O)c1ccccc1)c1ccccc1 (stereo unspecified) | 1.84 | 21.2 µM | 24 | > 100 | 9.07 | 29.9 µM | 19.1 | > 100 µM | 57.6 | 10.4 | – | – | – | – | – | – | – | – | – | –
15 | COc1ccc(OC)c2c1[nH]c(=O)c1c3ncccc3cn21 | > 100 | > 100 µM | > 100 | 15.3 | > 100 | > 100 µM | – | > 100 µM | > 100 | > 100 | 3.27 µM | 2530 nM | 5510 | 2830 | 3.23 | 3790 nM | – | 3430 | 4910 | 5.44 µM
16 | Cc1cc(N2CCSCC2)nc(NC2CCCC(Nc3ccnc4cc(Cl)ccc34)C2)n1 (stereo unspecified) | 2.77 | 5.51 µM | 3.43 | 8.91 | – | 3.11 µM | 14.1 | 2.35 µM | 10.8 | 2.92 | 1.24 µM | 2500 nM | 1800 | 2880 | – | 1720 nM | 2880 | 452 | 2700 | 1.52 µM
